Data set [1] has as its system HCV gT1b replicon. Put plainly: HCV replicon assay, gT1b. It is filed as cell-based, Hepatitis C virus (HCV). The conditions noted are these: Hepatitis C virus, GT1B, Huh-7, Huh7 replicon cells, mean value. How it is done: The HCV replicon assay was used to determine the antiviral activity of compounds of general formula 2 (test compounds). The test cell line used in the HCV Replicon Assay was the human hepatoma cell line Huh7 incorporating the HCV replicons synthesized by an outside vendor.
96-well plates were seeded with cells at a density of 7.5×10^3 cells per well in 50 μl of assay media. The compound stock solution was made up freshly in an assay medium (DMEM 1×, Cellgro; cat. #10-013-CV) as a 2× stock. A total of 11 serial 3-fold dilutions of test compounds were prepared from the 2× stock in the assay media ranging from 20 nM-0.2 pM final concentrations. At least 4 hours after seeding the cells, compound treatment was initiated by adding 50 μl of compound dilution to the plates. The final concentrations of compound therefore ranged from 10 nM to 0.1 pM when diluted 1:1 in culture media. The final DMSO concentration was 0.5%. Cells and inhibitors were incubated for 3 days at 37° C./5% CO2. The media was removed from the plates by gentle tapping. The cells were fixed with 100 μl 1:1 acetone:methanol for 1 minute, washed three times with PBS buffer, and then blocked with 150 μl/well 10% Fetal Bovine Serum (FBS) in PBS for 1 hour at room temperature. The cells were then washed three times with PBS buffer and incubated with 100 μl/well anti-hepatitis C core mAb (Affinity BioReagents; cat. # MA1-080, 1 mg/ml stock diluted 1:4,000 in 10% FBS-PBS) for 2 hours at 37° C. Then, the cells were washed three times with PBS and incubated with 100 μl/well HRP-Goat Anti-Mouse antibody (diluted 1:3.500 in 10% FBS-PBS) for 1 hour at 37° C. The cells were then washed three times with PBS and developed with an OPD solution, 100 μl/well (1 OPD tablet+12 ml citrate/phosphate buffer+5 μl 30% H2O2 per plate), for 30 minutes in the dark at room temperature. The reaction was stopped with 2N H2SO4 (100 μl/well), and the absorbance was measured at A490 X on a Victor^3 V 1420 multilabel counter (Perkin Elmer).

The nature of data set [2]: Cytotoxicity, cell viability by ATPLite Kit. It counts as cell-based, human. The conditions noted are these: human, 10% FBS; for inhibition at 96 h: Huh7 cells (human hepatoma cell line), maximal inhibition, read-out: Cytotox gT1b 10% FBS max. inh. The procedure:
The cytotoxicity of the test compounds was studied in parallel using the same cell line, Huh7. Cell viability was determined using the ATPLite Kit (Perkin-Elmer, Boston, USA), according to manufacturer's instructions. 96-well black/transparent bottom plates were seeded with cells at a density of 7.5×10^3 cells per well in 50 μl medium. After 18 hours, compound treatment was initiated by adding 50 μl of compound dilution into the plates. Each compound dilution was tested in triplicates. The cells and inhibitors were then incubated for 96 hours at 37° C./5% CO2. The plates were washed twice with PBS (0.2 ml/well), and then lysed by adding lysis buffer, 0.05 ml/well (all reagents were included with the ATPLite Kit). After rocking for 5 min on a rocking platform, substrate buffer was added (0.05 ml/well). After additional 5-min incubation, the plates were kept in dark for 10 min, and the luminescence was read using TopCount NXT (Packard, Perkin Elmer). CC50 values for all test compounds were determined using XLfit 4.1 software (Table 2).

[3] abbreviates: 10% FBS, read-out: gT1b 10% FBS, EC50 (pM) mean.
[4] abbreviates: 40% NHS, read-out: gT1b 40% NHS, EC50 (pM) mean.

Structures can show the parent of a compound that is named as a salt. Where two headings read alike, the source gives them in different places.

Consider `COC(=O)N[C@H](C(=O)N1CCC[C@H]1c1ncc(C#CC#Cc2ccc(-c3cnc([C@@H]4CCCN4C(=O)[C@@H](NC(=O)OC)C(C)C)[nH]3)cc2-c2ccccc2)[nH]1)C(C)C` [2(1)•2HCl, [(S)-1-((S)-2-{5-[4-(5-{2-[(S)-1-((S)-2-Methoxycarbonylamino-3-methyl-butyryl)-pyrrolidin-2-yl]-3H-imidazol-4-yl}-biphenyl-2-yl)-buta-1,3-diynyl]-1H-imidazol-2-yl}-pyrrolidine-1-carbonyl)-2-methyl-propyl]-carbamic acid methyl ester dihydrochloride], for which the figures for the EC50 in data set [1] (setting [3]) and in data set [1] (setting [4]) were 1.79 pM and 12.4 pM, respectively. For the same compound, the inhibition at 96 h in data set [2] stood at 42%.
Turning to `COC(=O)N[C@H](C(=O)N1CCC[C@H]1c1ncc(C#CC#Cc2ccc(-c3cnc([C@@H]4CCCN4C(=O)[C@@H](NC(=O)OC)C(C)C)[nH]3)cc2-c2cccc(C(C)(C)C)c2)[nH]1)C(C)C` [2(2)•2HCl, [(S)-1-((S)-2-{5-[4-(3′-tert-Butyl-5-{2-[(S)-1-((S)-2-methoxycarbonylamino-3-methyl-butyryl)-pyrrolidin-2-yl]-3H-imidazol-4-yl}-biphenyl-2-yl)-buta-1,3-diynyl]-1H-imidazol-2-yl}-pyrrolidine-1-carbonyl)-2-methyl-propyl]-carbamic acid methyl ester dihydrochloride], the EC50 was 1.67 pM in data set [1] (setting [3]) and 6.6 pM in data set [1] (setting [4]). Also, the inhibition at 96 h in data set [2] came to 38%.
On the same counts, the results for `COC(=O)N[C@H](C(=O)N1CCC[C@H]1c1ncc(C#CC#Cc2ccc(-c3cnc([C@@H]4CCCN4C(=O)[C@@H](NC(=O)OC)C(C)C)[nH]3)cc2-c2cccc(-c3ccccc3)c2)[nH]1)C(C)C` [2(3)•2HCl, [(S)-1-((S)-2-{5-[4-(5-{2-[(S)-1-((S)-2-Methoxycarbonylamino-3-methyl-butyryl)-pyrrolidin-2-yl]-3H-imidazol-4-yl}-[1,1′; 3′,1″]terphenyl-2-yl)-buta-1,3-diynyl]-1H-imidazol-2-yl}-pyrrolidine-1-carbonyl)-2-methyl-propyl]-carbamic acid methyl ester dihydrochloride] are 1.24 pM, 17.1 pM and 29%.
With `COC(=O)N[C@H](C(=O)N1CCC[C@H]1c1ncc(C#CC#Cc2ccc(-c3cnc([C@@H]4CCCN4C(=O)[C@@H](NC(=O)OC)C(C)C)[nH]3)cc2-c2ccc3ccccc3c2)[nH]1)C(C)C` [2(4)•2HCl, [(S)-1-((S)-2-{5-[4-(4-{2-[(S)-1-((S)-2-Methoxycarbonylamino-3-methyl-butyryl)-pyrrolidin-2-yl]-3H-imidazol-4-yl}-2-naphthalen-2-yl-phenyl)-buta-1,3-diynyl]-1H-imidazol-2-yl}-pyrrolidine-1-carbonyl)-2-methyl-propyl]-carbamic acid methyl ester dihydrochloride], the EC50 was 1.56 pM in data set [1] (setting [3]) and 16.3 pM in data set [1] (setting [4]). Moreover, in data set [2], the inhibition at 96 h was 31%.
`COC(=O)N[C@H](C(=O)N1CCC[C@H]1c1ncc(-c2ccc(C#CC#Cc3cnc([C@@H]4CCCN4C(=O)[C@H](NC(=O)OC)c4ccccc4)[nH]3)c(-c3cccc(C(C)(C)C)c3)c2)[nH]1)C(C)C` [2(10)•2HCl, [(S)-1-((S)-2-{5-[3′-tert-Butyl-6-(4-{2-[(S)-1-((R)-2-methoxycarbonylamino-2-phenyl-acetyl)-pyrrolidin-2-yl]-3H-imidazol-4-yl}-buta-1,3-diynyl)-biphenyl-3-yl]-1H-imidazol-2-yl}-pyrrolidine-1-carbonyl)-2-methyl-propyl]-carbamic acid methyl ester dihydrochloride]: the EC50 in data set [1] (setting [3]) is 1.22 pM; in data set [1] (setting [4]) it was 8.13 pM. In addition, the inhibition at 96 h in data set [2] is 37%.
On the same counts, the results for `COC(=O)N[C@H](C(=O)N1CCC[C@H]1c1ncc(-c2ccc(C#CC#Cc3cnc([C@@H]4CCCN4C(=O)[C@H](NC(=O)OC)c4ccccc4)[nH]3)c(-c3ccc(C(C)(C)C)cc3)c2)[nH]1)C(C)C` [2(11)•2HCl, [(S)-1-((S)-2-{5-[4′-tert-Butyl-6-(4-{2-[(S)-1-((R)-2-methoxycarbonylamino-2-phenyl-acetyl)-pyrrolidin-2-yl]-3H-imidazol-4-yl}-buta-1,3-diynyl)-biphenyl-3-yl]-1H-imidazol-2-yl}-pyrrolidine-1-carbonyl)-2-methyl-propyl]-carbamic acid methyl ester dihydrochloride] are 1.24 pM, 10.7 pM and 29%.
Regarding `COC(=O)N[C@H](C(=O)N1CCC[C@H]1c1ncc(-c2ccc(C#CC#Cc3cnc([C@@H]4CCCN4C(=O)[C@H](NC(=O)OC)c4ccccc4)[nH]3)c(-c3cccc(-c4ccccc4)c3)c2)[nH]1)C(C)C` [2(12)•2HCl, [(S)-1-((S)-2-{5-[6-(4-{2-[(S)-1-((R)-2-Methoxycarbonylamino-2-phenyl-acetyl)-pyrrolidin-2-yl]-3H-imidazol-4-yl}-buta-1,3-diynyl)-[1,1′;3′,1″]terphenyl-3-yl]-1H-imidazol-2-yl}-pyrrolidine-1-carbonyl)-2-methyl-propyl]-carbamic acid methyl ester dihydrochloride], the values for the EC50 in data set [1] (setting [3]) and in data set [1] (setting [4]) were 1.79 pM and 13.4 pM, respectively. In addition, the inhibition at 96 h in data set [2] is 29%.
On the same counts, the results for `COC(=O)N[C@H](C(=O)N1CCC[C@H]1c1ncc(-c2ccc(C#CC#Cc3cnc([C@@H]4CCCN4C(=O)[C@H](NC(=O)OC)c4ccccc4)[nH]3)c(-c3ccc(-c4ccccc4)cc3)c2)[nH]1)C(C)C` [2(13)•2HCl, [(S)-1-((S)-2-{5-[6-(4-{2-[(S)-1-((R)-2-Methoxycarbonylamino-2-phenyl-acetyl)-pyrrolidin-2-yl]-3H-imidazol-4-yl}-buta-1,3-diynyl)-[1,1′;4′,1″]terphenyl-3-yl]-1H-imidazol-2-yl}-pyrrolidine-1-carbonyl)-2-methyl-propyl]-carbamic acid methyl ester dihydrochloride] are 1.61 pM, 14.4 pM and 24%.
On to `COC(=O)N[C@H](C(=O)N1CCC[C@H]1c1ncc(-c2ccc(C#CC#Cc3cnc([C@@H]4CCCN4C(=O)[C@H](NC(=O)OC)c4ccccc4)[nH]3)c(-c3ccc(N4CCN(C)CC4)cc3)c2)[nH]1)C(C)C` [2(15)•2HCl, [(S)-1-((S)-2-{5-[4′-(4-Methyl-piperazin-1-yl)-6-(4-{2-[(S)-1-((R)-2-methoxycarbonylamino-2-phenyl-acetyl)-pyrrolidin-2-yl]-3H-imidazol-4-yl}-buta-1,3-diynyl)-biphenyl-3-yl]-1H-imidazol-2-yl}-pyrrolidine-1-carbonyl)-2-methyl-propyl]-carbamic acid methyl ester tetrahydrochloride], for which the EC50 was 3.65 pM in data set [1] (setting [3]) and 23.9 pM in data set [1] (setting [4]). Further, in data set [2], the inhibition at 96 h worked out at 82%. For the same compound, the CC50 at 96 h in data set [2] (Huh7 human hepatoma cells, read-out: Cytotox gT1b 10% FBS CC50) is 16.2 µM.
On to `COC(=O)N[C@H](C(=O)N1CCC[C@H]1c1ncc(-c2ccc(C#CC#Cc3cnc([C@@H]4CCCN4C(=O)[C@H](NC(=O)OC)c4ccccc4)[nH]3)c(-c3cccnc3)c2)[nH]1)C(C)C` [2(16)•2HCl, [(S)-1-((S)-2-{5-[4-(4-{2-[(S)-1-((R)-2-Methoxycarbonylamino-2-phenyl-acetyl)-pyrrolidin-2-yl]-3H-imidazol-4-yl}-buta-1,3-diynyl)-3-pyridin-3-yl-phenyl]-1H-imidazol-2-yl}-pyrrolidine-1-carbonyl)-2-methyl-propyl]-carbamic acid methyl ester trihydrochloride], for which the EC50 in data set [1] (setting [3]) came to 4.7 pM; in data set [1] (setting [4]) it was 36.2 pM. Further, the inhibition at 96 h in data set [2] came out at 32%.

The values are drawn from patent US9790207B2, “Pan-genomic inhibitors of NS5A protein encoded by HCV, pharmaceutical compositions, intermediates for inhibitor synthesis, and their synthesis and application methods” (priority 2015, dated 2017).
